{"source": "patent US5756120A", "about": "“Antibiotic formulation and use for drug resistant infections” (NeXstar Pharmaceuticals, Inc., priority 1995, dated 1998)", "system": "M. tuberculosis drug resistant strain Vertulla", "assay_type": "cell-based", "details": "for CFU (1 × 10^3): duplicate values; for inhibition or killing of drug resistant M. tuberculosis: concentrations tested (4, 8 and 16 μg/ml)", "note": "Where “and” joins values, the source holds several entries; their conditions need not be identical. Equal entries are not always repeated. Entries after “also recorded” stand apart in the source; their conditions may differ. Where two headings read alike, the source gives them in different places."}
{"compound": "NCC[C@H](O)C(=O)N[C@@H]1C[C@H](N)[C@@H](O[C@H]2O[C@H](CN)[C@@H](O)[C@H](O)[C@H]2O)[C@H](O)[C@H]1O[C@H]1O[C@H](CO)[C@@H](O)[C@H](N)[C@H]1O", "note": "[amikacin]", "values": [{"measurement": "Avg. log CFU", "setting": "4 μg/ml, day 4", "result": 3.9, "unit": "log CFU"}, {"measurement": "CFU (1 × 10^3)", "setting": "4 μg/ml, day 4", "result": "9.3 1 × 10^3 CFU and 8.0 1 × 10^3 CFU"}, {"measurement": "Avg. log CFU", "setting": "4 μg/ml, day 7", "result": 5.2, "unit": "log CFU"}, {"measurement": "Avg. log CFU", "setting": "8 μg/ml, day 4", "result": 3.7, "unit": "log CFU"}, {"measurement": "CFU (1 × 10^3)", "setting": "8 μg/ml, day 4", "result": "5 1 × 10^3 CFU and 4 1 × 10^3 CFU"}, {"measurement": "Avg. log CFU", "setting": "8 μg/ml, day 7", "result": 3.7, "unit": "log CFU"}, {"measurement": "CFU (1 × 10^3)", "setting": "8 μg/ml, day 7", "result": "4.5 1 × 10^3 CFU and 6.2 1 × 10^3 CFU"}, {"measurement": "Avg. log CFU", "setting": "16 μg/ml, day 4", "result": 3.7, "unit": "log CFU"}, {"measurement": "CFU (1 × 10^3)", "setting": "16 μg/ml, day 4", "result": "5 1 × 10^3 CFU and 5.4 1 × 10^3 CFU"}, {"measurement": "Avg. log CFU", "setting": "16 μg/ml, day 7", "result": 3.6, "unit": "log CFU"}, {"measurement": "CFU (1 × 10^3)", "setting": "16 μg/ml, day 7", "result": "3.7 1 × 10^3 CFU and 4.1 1 × 10^3 CFU"}, {"measurement": "inhibition or killing of drug resistant M. tuberculosis", "setting": "listed as free amikacin", "result": "at the most, inhibition; also recorded: only inhibit the growth of the infection without killing at the concentrations tested"}, {"measurement": "inhibition or killing of drug resistant M. tuberculosis", "setting": "listed as free drug", "result": "only inhibits the growth of the bacteria"}]}
